Reference: patent US8435978B2, “Substituted sulfonamide compounds” (Gruenenthal GmbH, priority 2006, dated 2013)
Structures can show the parent of a compound that is named as a salt.

Legend:
B1R receptor of the rat = molecular target: T1, B1R receptor of the rat (Rattus norvegicus, UniProt P97583); assay: Functional study on the bradykinin receptor 1 (B1R), FLIPR Ca2+ assay, rB1R cells; format: cell-based; details: agonist Des-Arg9-bradykinin 100 nM, % inhibition compared with the maximum achievable inhibition; for inhibition at 10 µM: CHO-K1, test substance 10 μM, read-out: B1R Antagonism, rat [10 μM] % Inhibition; for B1R Antagonism, rat [10 μM] % Inhibition: test substance 10 μM, rB1R CHO K1 cells
T1 construct: host or cells: CHO K1 cells (Chinese hamster ovary), stably transfected
T1 sequence (P97583 1-337): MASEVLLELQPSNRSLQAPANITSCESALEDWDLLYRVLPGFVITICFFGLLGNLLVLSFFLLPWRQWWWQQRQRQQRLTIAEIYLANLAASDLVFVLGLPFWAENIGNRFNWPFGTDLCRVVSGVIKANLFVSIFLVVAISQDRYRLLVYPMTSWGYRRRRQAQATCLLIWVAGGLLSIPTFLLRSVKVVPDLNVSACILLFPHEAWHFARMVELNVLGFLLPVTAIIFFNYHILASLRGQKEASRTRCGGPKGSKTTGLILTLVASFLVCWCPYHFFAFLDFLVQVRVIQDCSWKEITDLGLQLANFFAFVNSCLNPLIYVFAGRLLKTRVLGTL
Description: (§1) The agonistic or antagonistic action of substances can be quantified on the bradykinin receptor 1 (B1R) of the species human and rat with ectopically expressing cell lines (CHO K1 cells) and with the aid of a Ca^2+-sensitive dye (Fluo-4) using a fluorescent imaging plate reader (FLIPR). The indication in % activation is based on the Ca^2+ signal after addition of Lys-Des-Arg^9-bradykinin (0.5 nM) or Des-Arg^9-bradykinin (100 nM). Antagonists result in a suppression of the Ca^2+ influx following administration of the agonist. The % inhibition in comparison with the maximum achievable inhibition is indicated.
(§2) The agonistic or antagonistic action of substances can be determined on the bradykinin receptor 1 (B1R) of the species human and rat using the following assay. According to this assay, the Ca^2+ influx through the channel is quantified with the aid of a Ca^2+-sensitive dye (type Fluo-4, Molecular Probes Europe BV, Leiden, Netherlands) using a Fluorescent Imaging Plate Reader (FLIPR, Molecular Devices, Sunnyvale, USA).
(§3) Chinese hamster ovary cells (CHO K1 cells) which have been stably transfected with the human B1R gene (hB1R cells, Euroscreen s.a., Gosselies, Belgium) or with the B1R gene of the rat (rB1R cells, Axxam, Milan, Italy) are used. For functional studies, the cells are plated out on black 96-well plates having a clear base (BD Biosciences, Heidelberg, Germany) in a density of 20,000-25,000 cells/well. The cells are incubated overnight at 37° C. and with 5% CO2 in culture medium (hB1R cells: Nutrient Mixture Ham's F12, Gibco Invitrogen GmbH, Karlsruhe, Germany; rB1R cells: D-MEM/F12, Gibco Invitrogen GmbH, Karlsruhe, Germany), with 10 vol. % FBS (fetal bovine serum, Gibco Invitrogen GmbH, Karlsruhe, Germany). On the following day, the cells are loaded for 60 minutes at 37° C. with 2.13 μM Fluo-4 (Molecular Probes Europe BV, Leiden, Netherlands) in HBSS buffer (Hank's buffered saline solution, Gibco Invitrogen GmbH, Karlsruhe, Germany) […] (Sigma-Aldrich, Taufkirchen, Germany) and 10 mM HEPES (Sigma-Aldrich, Taufkirchen, Germany). The plates are then washed twice with HBSS buffer, and HBSS buffer additionally containing 0.1% BSA (bovine serum albumin; Sigma-Aldrich, Taufkirchen, Germany), 5.6 mM glucose and 0.05% gelatin (Merck KGaA, Darmstadt, Germany) is added to the plates. After incubation for a further 20 minutes at room temperature, the plates are inserted into the FLIPR for Ca^2+ measurement. The Ca^2+-dependent fluorescence is measured before and after the addition of substances (λex=488 nm, λem=540 nm). Quantification is carried out by measuring the highest fluorescence intensity (FC, fluorescence counts) over time.
(§4) The FLIPR protocol consists of 2 substance additions. Test substances (10 μM) are first pipetted onto the cells and the Ca^2+ influx is compared with the control (hB1R: Lys-Des-Arg^9-bradykinin 0.5 nM; rB1R: Des-Arg^9-bradykinin 100 nM). This gives the activation in %, based on the Ca^2+ signal after addition of Lys-Des-Arg^9-bradykinin (0.5 nM) or Des-Arg^9-bradykinin (100 nM).
(§5) After 10 minutes' incubation, 0.5 nM Lys-Des-Arg^9-bradykinin (hB1R) or 100 nM Des-Arg^9-bradykinin (rB1R) are applied, and the influx of Ca^2+ is likewise determined. Antagonists lead to suppression of the Ca^2+ influx. The % inhibition compared with the maximum achievable inhibition is calculated.

human B1R receptor = molecular target: T2, human B1R receptor (Homo sapiens, UniProt P46663); assay: Functional study on the bradykinin receptor 1 (B1R), FLIPR Ca2+ assay, hB1R cells; format: cell-based; details: agonist Lys-Des-Arg9-bradykinin 0.5 nM, % inhibition compared with the maximum achievable inhibition; for inhibition at 10 µM: CHO-K1, test substance 10 μM, read-out: B1R Antagonism, human [10 μM] % Inhibition; for B1R Antagonism, human [10 μM] % Inhibition: test substance 10 μM, hB1R CHO K1 cells
T2 construct: host or cells: CHO K1 cells (Chinese hamster ovary), stably transfected
T2 sequence (P46663 1-353): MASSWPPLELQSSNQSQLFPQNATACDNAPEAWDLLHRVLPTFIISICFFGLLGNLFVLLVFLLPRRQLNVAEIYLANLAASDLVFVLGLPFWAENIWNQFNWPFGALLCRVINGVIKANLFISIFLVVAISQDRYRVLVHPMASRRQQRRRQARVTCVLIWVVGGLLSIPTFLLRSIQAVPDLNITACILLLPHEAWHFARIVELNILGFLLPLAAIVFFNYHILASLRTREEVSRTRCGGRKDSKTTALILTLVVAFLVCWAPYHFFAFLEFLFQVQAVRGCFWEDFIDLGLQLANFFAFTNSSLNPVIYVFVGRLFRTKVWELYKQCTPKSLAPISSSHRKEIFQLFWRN
Description: as §1, §2, §3, §4, §5

inhibition at 10 µM (B1R receptor of the rat) | inhibition at 10 µM (human B1R receptor) | B1R Antagonism, rat [10 μM] % Inhibition (B1R receptor of the rat) | B1R Antagonism, human [10 μM] % Inhibition (human B1R receptor) | SMILES
4.42% | 44.9% |  |  | O=C(COCC1Cc2ccccc2CN1S(=O)(=O)c1ccc(Cl)c(Cl)c1)N1CCCC1CN1CCCCC1 (stereo not shown) [Example 82, 2-[2-(3,4-dichloro-phenylsulfonyl)-1,2,3,4-tetrahydro-isoquinolin-3-ylmethoxy]-1-(2-piperidin-1-ylmethyl-pyrrolidin-1-yl)-ethanone]
81.3% | 38.5% |  |  | Cc1cc(S(=O)(=O)N2CCCCC2COCC(=O)N2CCN(Cc3ccccc3)CC2)c(C)cc1Cl (stereo not shown) [Example 568, 1-(4-benzylpiperazin-1-yl)-2-((1-(4-chloro-2,5-dimethylphenylsulfonyl)piperidin-2-yl)methoxy)ethanone]
103% | 96.7% |  |  | COc1cc(C)c(S(=O)(=O)N2CCCC2COCC(=O)NCC(c2ccccc2Cl)N2CCCC2)c(C)c1 (stereo not shown) [Example 502, N-(2-(2-chlorophenyl)-2-(pyrrolidin-1-yl)ethyl)-2-((1-(4-methoxy-2,6-dimethylphenylsulfonyl)pyrrolidin-2-yl)methoxy)acetamide]
 |  | 87.56% | 29.73% | COc1ccc(S(=O)(=O)N2CCCCC2COCC(=O)Nc2ccc(NC(=O)CN3CCCCC3)c(C)c2)cc1 (stereo not shown) [Example 557, 2-((1-(4-methoxyphenylsulfonyl)piperidin-2-yl)methoxy)-N-(3-methyl-4-(2-(piperidin-1-yl)acetamideo)phenyl)acetamide]
51.3% | 100% |  |  | O=C(COCC1Cc2ccccc2CN1S(=O)(=O)c1ccc(Cl)cc1Cl)Nc1cccc(N2CCOCC2)c1 (stereo not shown) [Example 265, 2-((2-(2,4-dichlorophenylsulfonyl)-1,2,3,4-tetrahydroisoquinolin-3-yl)methoxy)-N-(3-morpholinophenyl)acetamide]
98.2% | 101% |  |  | COc1cc(C)c(S(=O)(=O)N2CCCCC2COCC(=O)N2CCC(N3CCn4ccnc4C3)CC2)c(C)c1 (stereo not shown) [Example 144, 1-(4-(5,6-dihydroimidazo[1,2-a]pyrazin-7(8H)-yl)piperidin-1-yl)-2-((1-(4-methoxy-2,6-dimethylphenylsulfonyl)piperidin-2-yl)methoxy)ethanone]
99.7% | 94.7% |  |  | COc1cc(C)c(S(=O)(=O)N2CCCCC2COCC(=O)N(C)CCc2ccncc2)c(C)c1 (stereo not shown) [Example 239, 2-((1-(4-methoxy-2,6-dimethylphenylsulfonyl)piperidin-2-yl)methoxy)-N-methyl-N-(2-(pyridin-4-yl)ethyl)acetamide]
99.1% | 106% |  |  | COc1cc(C)c(S(=O)(=O)N2CCCC2COCC(=O)N2CCN(Cc3cccc(C#N)c3)CC2)c(C)c1 (stereo not shown) [Example 93, 3-((4-(2-((1-(4-methoxy-2,6-dimethylphenylsulfonyl)pyrrolidin-2-yl)methoxy)acetyl)-piperazin-1-yl)methyl)benzonitrile hydrochloride]
101% | 59.3% |  |  | COc1cc(OC)cc(N2CCN(C(=O)COCC3CCCCN3S(=O)(=O)c3c(Cl)cc(Cl)cc3Cl)CC2)c1 (stereo not shown) [Example 253, 1-(4-(3,5-dimethoxyphenyl)piperazin-1-yl)-2-((1-(2,4,6-trichlorophenylsulfonyl)piperidin-2-yl)methoxy)ethanone]
 |  | 98.6% | 104% | COc1cc(C)c(S(=O)(=O)N2CCC[C@H]2COCC(=O)N2CCN(C3CCN(C)CC3)CC2)c(C)c1 [Example 180, (S)-2-((1-(4-methoxy-2,6-diimethylphenylsulfonyl)pyrrolidin-2-yl)methoxy)-1-(4-(1-methylpiperidin-4-yl)piperazin-1-yl)ethanone]
101% | 22.9% |  |  | COc1cc(C)c(S(=O)(=O)N2CCCCC2COCC(=O)N2CCN(C)CC2c2ccccc2)c(C)c1 (stereo not shown) [Example 388, 2-((1-(4-methoxy-2,6-dimethylphenylsulfonyl)piperidin-2-yl)methoxy)-1-(4-methyl-2-phenylpiperazin-1-yl)ethanone]
102% | 93% |  |  | COc1cc(C)c(S(=O)(=O)N2CCCCC2COCC(=O)N2CCN(c3ccc(C)c(C)c3)CC2)c(C)c1 (stereo not shown) [Example 512, 1-(4-(3,4-dimethylphenyl)piperazin-1-yl)-2-((1-(4-methoxy-2,6-dimethylphenylsulfonyl)piperidin-2-yl)methoxy)ethanone]
90.8% | 100% |  |  | Cc1cccc(Cl)c1S(=O)(=O)N1CCC[C@@H]1COCC(=O)N1CCN(C2CCN(C)CC2)CC1 [Example 152, (R)-2-((1-(2-chloro-6-methylphenylsulfonyl)pyrrolidin-2-yl)methoxy)-1-(4-(1-methylpiperidin-4-yl)piperazin-1-yl)ethanone dihydrochloride]
101% | 74% |  |  | COc1cc(C)c(S(=O)(=O)N2CCCC2COCC(=O)NC(CN2CCCC2)c2ccccc2)c(C)c1 (stereo not shown) [Example 505, 2-((1-(4-methoxy-2,6-dimethylphenylsulfonyl)pyrrolidin-2-yl)methoxy)-N-(1-phenyl-2-(pyrrolidin-1-yl)ethyl)acetamide]
98.8% | 103% |  |  | CN1CCC(N2CCN(C(=O)COCC3CCc4ccccc4N3S(=O)(=O)c3ccc4ccccc4c3)CC2)CC1 (stereo not shown) [Example 203, 1-(4-(1-methylpiperidin-4-yl)piperazin-1-yl)-2-((1-(naphthalen-2-ylsulfonyl)-1,2,3,4-tetrahydroquinolin-2-yl)methoxy)ethanone]
101% | 75.6% |  |  | O=C(COCC1CCCCN1S(=O)(=O)c1c(Cl)cccc1Cl)N1CCN(c2ccc(C(F)(F)F)cn2)CC1 (stereo not shown) [Example 484, 2-((1-(2,6-dichlorophenylsulfonyl)piperidin-2-yl)methoxy)-1-(4-(5-(trifluoromethyl)pyridin-2-yl)piperazin-1-yl)ethanone]
104% | 72.6% |  |  | O=C(COCC1CCCCN1S(=O)(=O)c1c(Cl)cccc1Cl)N1CCN(c2cccc(C(F)(F)F)c2)CC1 (stereo not shown) [Example 481, 2-((1-(2,6-dichlorophenylsulfonyl)piperidin-2-yl)methoxy)-1-(4-(3-(trifluoromethyl)phenyl)piperazin-1-yl)ethanone]
